ChEMBL document CHEMBL1152535, “Synthesis of branched 9-[2-(2-phosphonoethoxy)ethyl]purines as a new class of acyclic nucleoside phosphonates which inhibit Plasmodium falciparum hypoxanthine-guanine-xanthine phosphoribosyltransferase” (Bioorg Med Chem, 2009)

Assays:
[1] = Inhibition of Plasmodium falciparum recombinant HGXPRT expressed in Escherichia coli by spectrophotometric assay
[2] = target: T1, Hypoxanthine-guanine phosphoribosyltransferase (Homo sapiens, UniProt P00492); assay: Inhibition of human recombinant HGPRT expressed in Escherichia coli by spectrophotometric assay
T1 sequence (P00492 whole entry): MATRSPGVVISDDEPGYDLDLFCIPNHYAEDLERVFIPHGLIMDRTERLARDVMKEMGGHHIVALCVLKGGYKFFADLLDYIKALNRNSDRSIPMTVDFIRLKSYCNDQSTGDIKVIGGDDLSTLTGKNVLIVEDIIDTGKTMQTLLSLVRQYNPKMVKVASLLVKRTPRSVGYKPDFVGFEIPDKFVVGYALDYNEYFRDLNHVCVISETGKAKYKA

[3] = Selectivity ratio of Ki for human recombinant HGPRT to Ki for Plasmodium falciparum recombinant HGXPRT

Row | Compound | Ki [1] | Ki [2] | Ratio Ki [3]
1 | CC(CP(=O)(O)O)OCCn1cnc2c(=O)[nH]cnc21 (configuration not stated) | 10 µM | 2 µM | 0.2
2 | CCC(CP(=O)(O)O)OCCn1cnc2c(=O)[nH]cnc21 (configuration not stated) | 69 µM | 10 µM | 0.15
3 | CCC(CP(=O)(O)O)OCCn1cnc2c(=O)[nH]c(N)nc21 (configuration not stated) | 5 µM | 0.3 µM | 0.06
4 | CC(CP(=O)(O)O)OCCn1cnc2c(=O)[nH]c(N)nc21 (configuration not stated) | 1 µM | 0.1 µM | 0.1
